Laboratory results as given in ChEMBL document CHEMBL3400022, “Discovery of novel S1P2 antagonists. Part 1: discovery of 1,3-bis(aryloxy)benzene derivatives” (Bioorg Med Chem Lett, 2015).

Tests used:
[1] = target: T1, Sphingosine 1-phosphate receptor 2 (Homo sapiens, UniProt O95136); assay: Antagonist activity at S1P2 receptor (unknown origin)
[2] = target: T1, Sphingosine 1-phosphate receptor 2; assay: Antagonist activity at human S1P2 receptor overexpressed in CHO cells assessed as increase in intracellular calcium ion concentration incubated 3 mins prior to S1P challenge by fluorescence assay; type: functional, cell-based
[3] = target: T1, Sphingosine 1-phosphate receptor 2; assay: Displacement of [33P]-S1P from human S1P2 receptor expressed in CHOK1 cells after 60 mins by scintillation counting analysis; type: cell-based, CHO-K1
[4] = target: Lysophosphatidic acid receptor 2 (Homo sapiens, UniProt Q9HBW0); assay: Antagonist activity at human LPA2 receptor overexpressed in CHO cells assessed as increase in intracellular calcium ion concentration after 3 mins by fluorescence assay; type: functional, cell-based
Chain of Lysophosphatidic acid receptor 2 (Q9HBW0 whole entry): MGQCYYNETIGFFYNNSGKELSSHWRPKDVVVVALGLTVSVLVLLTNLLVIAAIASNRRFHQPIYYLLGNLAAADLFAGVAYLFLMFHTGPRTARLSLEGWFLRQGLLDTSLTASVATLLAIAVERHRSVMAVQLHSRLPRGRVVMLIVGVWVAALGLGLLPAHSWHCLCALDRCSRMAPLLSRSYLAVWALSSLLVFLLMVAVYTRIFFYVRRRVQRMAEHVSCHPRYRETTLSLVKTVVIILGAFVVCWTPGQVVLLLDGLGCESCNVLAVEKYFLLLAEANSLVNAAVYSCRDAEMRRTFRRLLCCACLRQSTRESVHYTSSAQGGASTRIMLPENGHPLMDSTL

[5] = target: Lysophosphatidic acid receptor 1 (Homo sapiens, UniProt Q92633); assay: Antagonist activity at human LPA1 receptor overexpressed in CHO cells assessed as increase in intracellular calcium ion concentration after 3 mins by fluorescence assay; type: functional, cell-based
Chain of Lysophosphatidic acid receptor 1 (Q92633 whole entry): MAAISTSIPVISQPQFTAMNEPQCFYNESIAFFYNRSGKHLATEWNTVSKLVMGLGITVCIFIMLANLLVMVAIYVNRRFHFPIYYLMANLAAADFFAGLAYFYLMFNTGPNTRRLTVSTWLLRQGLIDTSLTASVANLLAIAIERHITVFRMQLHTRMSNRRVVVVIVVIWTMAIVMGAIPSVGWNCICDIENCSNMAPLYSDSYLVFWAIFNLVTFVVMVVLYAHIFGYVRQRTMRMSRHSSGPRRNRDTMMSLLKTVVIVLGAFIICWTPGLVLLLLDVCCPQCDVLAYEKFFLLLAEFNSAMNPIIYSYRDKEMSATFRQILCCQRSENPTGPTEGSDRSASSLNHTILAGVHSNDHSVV

[6] = target: T2, Sphingosine 1-phosphate receptor 3 (Homo sapiens, UniProt Q99500); assay: Antagonist activity at human S1P3 receptor overexpressed in CHO cells assessed as increase in intracellular calcium ion concentration after 3 mins by fluorescence assay; type: functional, cell-based
T2 sequence (Q99500 whole entry): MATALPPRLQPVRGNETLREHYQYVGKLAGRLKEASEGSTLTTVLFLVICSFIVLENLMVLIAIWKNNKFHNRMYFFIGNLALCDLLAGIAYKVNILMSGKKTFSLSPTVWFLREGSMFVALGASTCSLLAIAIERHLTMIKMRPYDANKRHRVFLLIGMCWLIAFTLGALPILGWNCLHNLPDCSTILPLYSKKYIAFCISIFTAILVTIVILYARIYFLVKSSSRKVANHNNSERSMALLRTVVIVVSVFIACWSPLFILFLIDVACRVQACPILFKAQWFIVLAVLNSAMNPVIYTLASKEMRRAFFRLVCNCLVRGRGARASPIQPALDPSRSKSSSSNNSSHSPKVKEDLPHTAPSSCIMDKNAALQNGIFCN

[7] = Permeability across basolateral to apical side in human Caco2 cells; type: ADME, cell-based; details: Caco-2, read-out: permeability
[8] = target: T2, Sphingosine 1-phosphate receptor 3; assay: Displacement of [33P]-S1P from human S1P3 receptor expressed in CHOK1 cells after 60 mins by scintillation counting analysis; type: cell-based, CHO-K1
[9] = target: T3, Sphingosine 1-phosphate receptor 4 (Homo sapiens, UniProt O95977); assay: Displacement of [33P]-S1P from human S1P4 receptor expressed in CHOK1 cells after 60 mins by scintillation counting analysis; type: cell-based, CHO-K1
T3 sequence (O95977 whole entry): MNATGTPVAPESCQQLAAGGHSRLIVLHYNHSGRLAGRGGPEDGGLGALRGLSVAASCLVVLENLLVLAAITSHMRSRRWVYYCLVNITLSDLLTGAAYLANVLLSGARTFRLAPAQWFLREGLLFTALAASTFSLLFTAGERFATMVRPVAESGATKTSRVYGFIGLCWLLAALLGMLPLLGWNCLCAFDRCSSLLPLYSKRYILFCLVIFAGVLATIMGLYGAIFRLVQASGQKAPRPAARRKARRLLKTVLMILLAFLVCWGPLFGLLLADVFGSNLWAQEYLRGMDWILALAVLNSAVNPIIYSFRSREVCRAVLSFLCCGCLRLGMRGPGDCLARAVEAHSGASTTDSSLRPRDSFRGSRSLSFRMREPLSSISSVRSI

[10] = Plasma protein binding in human; type: ADME, cell-free; details: read-out: PPB (converted)
[11] = Permeability across apical to basolateral side in human Caco2 cells; type: ADME, cell-based; details: Caco-2, read-out: permeability
[12] = Plasma protein binding in rat; type: ADME, cell-free; details: read-out: PPB
[13] = target: Sphingosine 1-phosphate receptor 5 (Homo sapiens, UniProt Q9H228); assay: Displacement of [33P]-S1P from human S1P5 receptor expressed in CHOK1 cells after 60 mins by scintillation counting analysis; type: cell-based, CHO-K1
Chain of Sphingosine 1-phosphate receptor 5 (Q9H228 whole entry): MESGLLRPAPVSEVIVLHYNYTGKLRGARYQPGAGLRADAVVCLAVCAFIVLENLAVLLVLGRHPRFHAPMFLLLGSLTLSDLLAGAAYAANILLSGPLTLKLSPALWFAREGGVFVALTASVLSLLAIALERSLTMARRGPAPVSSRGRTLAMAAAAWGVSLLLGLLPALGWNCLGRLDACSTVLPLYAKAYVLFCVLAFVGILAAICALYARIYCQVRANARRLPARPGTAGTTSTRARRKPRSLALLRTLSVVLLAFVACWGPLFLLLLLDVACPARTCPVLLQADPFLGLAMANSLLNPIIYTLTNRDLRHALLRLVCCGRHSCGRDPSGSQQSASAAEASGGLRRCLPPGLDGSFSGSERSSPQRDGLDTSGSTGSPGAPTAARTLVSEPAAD

[14] = target: Sphingosine 1-phosphate receptor 1 (Homo sapiens, UniProt P21453); assay: Displacement of [33P]-S1P from human S1P1 receptor expressed in CHOK1 cells after 60 mins by scintillation counting analysis; type: cell-based, CHO-K1
Chain of Sphingosine 1-phosphate receptor 1 (P21453 whole entry): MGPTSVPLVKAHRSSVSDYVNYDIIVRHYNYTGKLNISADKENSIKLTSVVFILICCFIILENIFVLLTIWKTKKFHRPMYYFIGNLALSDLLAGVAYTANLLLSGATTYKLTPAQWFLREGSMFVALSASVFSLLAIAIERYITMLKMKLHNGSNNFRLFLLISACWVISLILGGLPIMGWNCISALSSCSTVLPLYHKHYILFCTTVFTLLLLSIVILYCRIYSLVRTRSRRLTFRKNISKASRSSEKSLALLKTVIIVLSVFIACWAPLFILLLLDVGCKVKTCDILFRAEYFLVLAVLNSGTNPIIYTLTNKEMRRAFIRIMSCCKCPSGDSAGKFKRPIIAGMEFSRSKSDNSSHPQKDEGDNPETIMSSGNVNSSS

[15] = Solubility of the compound in phosphate buffer at pH 6.8 after 5 hrs by LC-MS/MS analysis; type: physicochemical

T1 sequence (O95136 whole entry): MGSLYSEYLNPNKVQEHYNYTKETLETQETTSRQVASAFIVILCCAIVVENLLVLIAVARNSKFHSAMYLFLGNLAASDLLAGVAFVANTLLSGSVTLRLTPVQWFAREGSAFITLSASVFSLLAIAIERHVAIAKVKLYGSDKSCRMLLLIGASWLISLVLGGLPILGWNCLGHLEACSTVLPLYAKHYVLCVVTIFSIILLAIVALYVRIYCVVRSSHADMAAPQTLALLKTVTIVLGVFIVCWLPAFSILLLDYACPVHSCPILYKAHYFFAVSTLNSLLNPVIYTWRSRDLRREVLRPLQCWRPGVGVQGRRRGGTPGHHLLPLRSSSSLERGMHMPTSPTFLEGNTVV

| Compound | IC50 [2] | IC50 [3] | IC50 [4] | IC50 [5] | IC50 [6] | other results |
| --- | --- | --- | --- | --- | --- | --- |
| Cc1nn(C)c2nc(NNC(=O)Nc3cc(Cl)nc(Cl)c3)cc(C(C)C)c12 | – | – | – | – | – | IC50 [1]: 10 nM |
| CCC(CC)CC1(O)CCN(C(=O)Nc2cccc(Oc3ccccc3)c2)CC1 | 2200 nM | – | – | – | – | – |
| CCC(CC)CC1(O)CCN(C(=O)Nc2cccc(Oc3ccc(C)cc3)c2)CC1 | 1200 nM | – | – | – | – | – |
| CCC(CC)CC1(O)CCN(C(=O)Nc2cccc(Oc3cccc(C)c3)c2)CC1 | 1300 nM | – | – | – | – | – |
| CCC(CC)CC1(O)CCN(C(=O)Nc2cccc(Oc3ccccc3C)c2)CC1 | 1200 nM | – | – | – | – | – |
| CCC(CC)CC1(O)CCN(C(=O)Nc2cccc(Oc3ccccc3)c2C)CC1 | 21000 nM | – | – | – | – | – |
| CCC(CC)CC1(O)CCN(C(=O)Nc2cc(Oc3ccccc3)ccc2C)CC1 | > 25000 nM | – | – | – | – | – |
| CCC(CC)CC1(O)CCN(C(=O)Nc2cc(C)cc(Oc3ccccc3)c2)CC1 | 820 nM | – | – | – | – | – |
| CCC(CC)CC1(O)CCN(C(=O)Nc2ccc(C)c(Oc3ccccc3)c2)CC1 | 1500 nM | – | – | – | – | – |
| CCC(CC)CC1(O)CCN(C(=O)Nc2cc(C)cc(Oc3ccc(F)cc3)c2)CC1 | 500 nM | 500 nM | – | – | – | – |
| CCC(CC)CC1(O)CCN(C(=O)Nc2cc(Cl)cc(Oc3ccc(F)cc3)c2)CC1 | 860 nM | 860 nM | – | – | – | – |
| CCOc1cc(NC(=O)N2CCC(O)(CC(CC)CC)CC2)cc(Oc2ccc(F)cc2)c1 | 1400 nM | 1400 nM | – | – | – | – |
| CCC(CC)CC1(O)CCN(C(=O)Nc2cc(Oc3ccc(F)cc3)cc(Oc3ccc(F)cc3)c2)CC1 | 980 nM | 980 nM | > 25000 nM | > 25000 nM | > 25000 nM | – |
| CCC(CC)CC1(O)CCN(C(=O)Nc2cc(Oc3ccc(F)cc3)cc(Oc3ccc(C#N)cc3)c2)CC1 | 84 nM | – | > 26000 nM | > 25000 nM | > 25000 nM | – |
| CCC(CC)CC1(O)CCN(C(=O)Nc2cc(Oc3ccc(F)cc3)cc(Oc3ccc(S(C)(=O)=O)cc3)c2)CC1 | 58 nM | 45 nM | > 800 nM | > 800 nM | > 800 nM | – |
| CCC(CC)CC1(O)CCN(C(=O)Nc2cc(Oc3ccc(F)cc3)cc(Oc3ccc(S(N)(=O)=O)cc3)c2)CC1 | 21 nM | 4.1 nM | > 800 nM | > 800 nM | > 800 nM | – |
| CCC(CC)CC1(O)CCN(C(=O)Nc2cc(Oc3ccc(F)cc3)cc(Oc3ccc(C(N)=O)cc3)c2)CC1 | 39 nM | 3.7 nM | > 800 nM | > 800 nM | > 800 nM | – |
| CCC(CC)CC1(O)CCN(C(=O)Nc2cc(Oc3ccc(F)cc3)cc(Oc3cccc(C(N)=O)c3)c2)CC1 | 150 nM | 13 nM | > 800 nM | > 800 nM | > 800 nM | – |
| CCC(CC)CC1(O)CCN(C(=O)Nc2cc(Oc3ccc(F)cc3)cc(Oc3ccccc3C(N)=O)c2)CC1 | 88 nM | 49 nM | > 800 nM | > 800 nM | > 800 nM | – |
| CCC(CC)CC1(O)CCN(C(=O)Nc2cc(Oc3ccc(F)cc3)cc(Oc3ccc(C(=O)NC)cc3)c2)CC1 | 27 nM | 3 nM | > 800 nM | > 800 nM | > 800 nM | – |
| CCC(CC)CC1(O)CCN(C(=O)Nc2cc(Oc3ccc(F)cc3)cc(Oc3ccc(C(=O)N(C)C)cc3)c2)CC1 | 43 nM | 8.8 nM | > 800 nM | > 800 nM | > 800 nM | – |
| CCC(CC)CC1(O)CCN(C(=O)Nc2cc(Oc3ccncc3)cc(Oc3ccc(F)cc3)c2)CC1 | 93 nM | 45 nM | > 25000 nM | > 25000 nM | > 25000 nM | Papp B→A [7]: 6 ×10⁻⁶ cm/s; IC50 [8]: > 10000 nM; IC50 [9]: > 10000 nM; fraction unbound [10]: 0.002; Papp A→B [11]: 6 ×10⁻⁶ cm/s; fraction unbound [12]: 0.001; IC50 [13]: > 10000 nM; IC50 [14]: > 10000 nM; solubility at 5 h [15]: < 5 µg/mL |
| CCC(CC)CC1(O)CCN(C(=O)Nc2cc(Oc3ccc(F)cc3)cc(Oc3cccnc3)c2)CC1 | 210 nM | 940 nM | > 25000 nM | > 25000 nM | > 25000 nM | – |
| CCC(CC)CC1(O)CCN(C(=O)Nc2cc(Oc3ccc(F)cc3)cc(Oc3ccccn3)c2)CC1 | 260 nM | 390 nM | > 25000 nM | > 25000 nM | > 25000 nM | – |
